Experimental data from patent US8436039B2, “Inhibitors of the ATB(0,+) transporter and uses thereof” (Georgia Health Sciences University Research Institute, Inc., priority 2008, dated 2013).

Assays:
mouse ATB^0,+ [1] = target: T1, mouse ATB^0,+ (Mus musculus, UniProt Q9JMA9); assay: Inhibition of ATB^0,+-mediated glycine uptake in HRPE cells expressing cloned mouse ATB^0,+; type: cell-based; settings: for inhibition of ATB^0,+-specific glycine uptake: glycine 10 μM, inhibitor 1 mM, 30 min, NaCl, HRPE cells
T1 sequence (Q9JMA9 1-638): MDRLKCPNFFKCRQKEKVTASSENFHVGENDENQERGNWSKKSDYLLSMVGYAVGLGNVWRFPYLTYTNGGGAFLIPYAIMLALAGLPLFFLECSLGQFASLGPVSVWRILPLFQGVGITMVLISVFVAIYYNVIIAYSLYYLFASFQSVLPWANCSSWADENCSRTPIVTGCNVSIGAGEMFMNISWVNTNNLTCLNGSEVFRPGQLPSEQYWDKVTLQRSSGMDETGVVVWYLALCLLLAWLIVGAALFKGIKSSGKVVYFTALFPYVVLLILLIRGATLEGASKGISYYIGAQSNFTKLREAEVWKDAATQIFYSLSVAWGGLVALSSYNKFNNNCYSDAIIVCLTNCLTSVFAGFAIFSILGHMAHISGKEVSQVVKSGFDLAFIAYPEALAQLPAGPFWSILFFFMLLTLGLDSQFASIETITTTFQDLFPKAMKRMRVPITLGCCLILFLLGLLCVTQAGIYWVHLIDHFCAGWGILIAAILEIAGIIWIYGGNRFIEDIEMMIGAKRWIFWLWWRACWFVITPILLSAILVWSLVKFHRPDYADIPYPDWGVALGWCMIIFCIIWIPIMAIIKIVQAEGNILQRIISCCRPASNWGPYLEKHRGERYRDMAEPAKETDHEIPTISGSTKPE

mouse ATB^0,+ [2] = target: T1, mouse ATB^0,+; assay: Substrate-induced inward currents in X. laevis oocytes expressing mouse ATB^0,+ (two-microelectrode voltage clamp); type: cell-based; settings: for inward currents induced in ATB^0,+-expressing oocytes: 2.5 mM; for inward currents induced in ATB^0,+-expressing oocytes / Michaelis constant (K0.5) of substrate-induced currents: voltage clamp, NaCl; for Michaelis constant (K0.5) of substrate-induced currents: saturation kinetics
Description: Capped cRNA from the cloned mouse or human ATB^0,+ cDNA was synthesized using the mMESSAGE mMACHTNE kit (Ambion, Austin, Tex., U.S.A.). Mature oocytes (stage IV or V) from X. laevis were injected with 50 ng of cRNA. Uninjected oocytes served as controls. The oocytes were used for electrophysiological studies 3-6 days after cRNA injection. Electrophysiological studies were performed by the two-microelectrode voltage-clamp method (Nakanishi et al., 2001, J. Physiol. 532, 297-304). Oocytes were superfused with an NaCl-containing buffer (100 mM NaCl, 2 mM KCl, 1 mM MgCl2, 1 mM CaCl2, 3 mM Hepes, 3 mM Mes and 3 mM Tris, pH 7.5), followed by the same buffer containing tryptophan derivatives. The membrane potential was clamped at −50 mV. The differences between the steady-state currents measured in the presence and absence of substrates were considered as the substrate-induced currents. In the analysis of the saturation kinetics of substrate-induced currents, the kinetic parameter K0.5 (i.e. substrate concentration necessary for induction of half-maximal current) was calculated by fitting the values of the substrate-induced currents to the Michaelis-Menten equation. The Na^+ and Cl^− activation kinetics of substrate-induced currents were analysed by measuring the substrate-specific currents in the presence of increasing concentrations of Na^+ (concentration of Cl^− kept constant at 100 mM) or in the presence of increasing concentrations of Cl^− (concentration of Na^+ kept constant at 100 mM). In these experiments, the composition of the superfusion buffer was modified to contain 2 mM potassium gluconate, 1 mM MgSO4 and 1 mM calcium gluconate in place of KCl, MgCl2 and CaCl2 respectively. The data from these experiments were analysed by the Hill equation to determine the Hill coefficient (h; number of Na^+ and Cl^− ions involved in the activation process). The kinetic parameters were determined by using the commercially available computer program Sigma Plot, version 6.0 (SPSS, Chicago, Ill., U.S.A.). Uninjected oocytes were used to determine the currents induced by tryptophan derivatives due to entry via transporters that may be constitutively expressed in the oocytes. At a concentration of 2.5 mM, the currents induced by these compounds were in the range of 0-3 nA in uninjected oocytes. These currents were less than 2% of the corresponding currents induced in ATB^0,+ cRNA-injected oocytes. Therefore the endogenous currents associated with the constitutively expressed transporters were not considered in the analysis of kinetic parameters of ATB^0,+ transport activity.
The above studies with the mammalian cell expression system have focused on the interaction of 1-methyltryptophan and other tryptophan derivatives with ATB^0,+ by examining the effects of these compounds on the transporter-mediated glycine uptake. These studies have shown convincingly that 1-methyltryptophan interacts with ATB^0,+, with the L-isomer having much higher affinity for the transporter than the D-isomer. However, these studies have not shown whether or not 1-methyltryptophan is actually a transportable substrate for ATB^0,+. It is possible that 1-methyltryptophan inhibits ATB^0,+-mediated glycine uptake simply by blocking the interaction of glycine with the substrate-binding site of the transporter, rather than by actually competing with glycine for the transport process. […] We wanted to know whether 1-methyltryptophan can actually be transported by ATB^0,+. For this, we used the X. laevis oocyte expression system. Since the transport process mediated by ATB^0,+ is electrogenic, exposure of ATB^0,+-expressing oocytes to transportable substrates will induce an inward current in an Na^+- and Cl^−-dependent manner. Exposure of the same oocytes to blockers will interfere with currents induced by transportable substrates, but will not induce currents by themselves. […]

[3] = 1 mM substrate, Cl^- fixed at 100 mM
[4] = 1 mM substrate, Na^+ fixed at 100 mM

Structure (SMILES) | inhibition of ATB^0,+-specific glycine uptake (mouse ATB^0,+ [1]) | inward currents induced in ATB^0,+-expressing oocytes (mouse ATB^0,+ [2]) | IC50 (mouse ATB^0,+ [1]) | Michaelis constant (K0.5) of substrate-induced currents (mouse ATB^0,+ [2]) | potency of L-isomer relative to D-isomer as inhibitor of ATB^0,+-mediated glycine uptake (mouse ATB^0,+ [1]; 1-methyl-L-tryptophan versus 1-methyl-D-tryptophan) | Hill coefficient (h), Na^+-activation kinetics of induced currents (mouse ATB^0,+ [2]; [3]) | Michaelis constant (K0.5) for Na^+ (mouse ATB^0,+ [2]; [3]) | Hill coefficient, Cl^- -activation kinetics of induced currents (mouse ATB^0,+ [2]; [4]) | Michaelis constant for Cl^- (mouse ATB^0,+ [2]; [4])
Cn1cc(CC(N)C(=O)O)c2ccccc21 (racemic) [1-methyl-DL-tryptophan] | inhibited | induced marked currents |  |  |  |  |  |  | 
CC(N)(Cc1c[nH]c2ccccc12)C(=O)O (racemic) [α-methyl-DL-tryptophan] | inhibited | failed to induce currents |  |  |  |  |  |  | 
Cn1cc(C[C@@H](N)C(=O)O)c2ccccc21 [1-methyl-D-tryptophan] |  |  | 780 ± 225 µM | 462 ± 78 µM |  |  |  |  | 
Cn1cc(C[C@H](N)C(=O)O)c2ccccc21 [1-methyl-L-tryptophan] |  |  | 23 ± 5 µM | 93 ± 16 µM | at least 35 fold | 1.9±0.2 | 27 ± 2 mM | 1.2±0.2 | 2.1 ± 0.3 mM
